Where a name gives a salt, the structure may show the parent alone.
Key:
[1] = Compatibility with standard intravenous solutions (precipitate formation); assay type: physicochemical; details: solutions and mixes with standard intravenous solutions (dextrose, saline, Ringers lactate)
From the text: Supplementary active ingredients can also be incorporated into the formulations of formula I and its salts. The formula I and its salts, and particularly fosphenytoin sodium, can be and is formulated so as to be compatible with the commonly used intravenous fluids including solutions based on dextrose, […] or 0.9% saline as well as more complicated solutions including/such as Ringers lactate, and the like.

[2] = tested on: middle cerebral artery occlusion (MCAO) model; assay: Middle cerebral artery occlusion (MCAO) model, infarct area and volume by TTC stain; assay type: in vivo, male F-344 rats; details: 37 mg/kg IV 30 minutes and 24 hours after occlusion
From the text: The model depends on a surgical procedure which is a modification of that originally proposed by A. Tamura, et al, "Focal Cerebral Ischemia in the Rat: Description of Technique and Early Neuropathological Consequences Following Middle Cerebral Artery Occlusion," J. Cerb. Blood Flow Metab. Vol. 1, pp. 53-60 and is similar to the methods described by Duverger and MacKenzie, "The Quantification of Cerebral Infarction Following Local Ischemia in the Rat: Influence of Strain, Arterial Pressure, Blood Glucose Concentration and Age", J. Cerb. Blood Flow Metab., Vol. 8, pp. 449-461 and S. Brint, et al, "Focal Brain Ischemia in the Rat: Methods for Reproducible Neocortical Infarction Using Tandem Occlusion of the Distal Middle Cerebral and Ipsilateral Common Carotid Arteries", J. Cereb. Blood Flow Metab., Vol. 8, pp. 474-485.
Generally, male F-344 rats weighing 300-350 g are anesthetized in 2% halothane in room air. The right femoral vein is cannulated and the tubing led subcutaneously to an exit behind the neck to allow intravenous (IV) drug injection. The left common carotid is permanently occluded with a 6-0 silk ligature. The left middle cerebral artery (MCA) is exposed through a 2-mm burr hole drilled 1-2 mm rostral to the fusion of the zygomatic arch with the squamosal bone. The dura is cut, the MCA lifted off the surface of the brain, electrocauterized, and cut. The wound margins are sutured shut and the anesthesia stopped.
The stable pharmaceutical composition is used for the assay or a solution for the assay may be prepared as follows: The hydrated fosphenytoin sodium (2.25 H₂O equivalent per mole) is dissolved in saline (pH = 7) at a concentration of 37 mg/mL and administered at 1 mL/kg. This dose of 37 mg/kg is equal to 30 mg/kg of the free base of fosphenytoin sodium. In vivo fosphenytoin sodium or the phenytoin prodrug undergoes a phosphate ester cleavage followed by a dehydroxymethylation to yield the free base of phenytoin. The dose administered is equivalent to 21 mg/kg of the free base of phenytoin.
This solution is then administered intravenously (IV) 30 minutes and 24 hours after occlusion to groups of 12 animals each. Forty-eight hours following occlusion rats are anesthetized with ketamine (150 mg/kg, IP), decapitated, the brains rapidly removed, and placed on ice. With the aid of a brain mold (Activational Systems), the brain is sliced into four 2-mm sections: one section anterior (ANT) to the MCA and three sections posterior (ANT-MED, POST-MED, and POST) to the MCA. The sections are then placed for 30 minutes in a 2% solution of 2,3,5 triphenyltetrazolium chloride (TTC) in saline. The brains are stored in 10% neutral buffered […] for analysis.
The brains are coded and the analysis is performed blinded. The area of infarction in each section is outlined with the aid of a morphometric analysis program (Bioquant IV, R & M Biometrics). The TTC stain is converted into a red marker in live mitochondria, while the infarcted area remains white. The total volume of infarction is calculated from the areas of the four sections assuming three truncated cones. The mean area for each section and the mean total volume are calculated; vehicle and drug treatment are compared using the Student's t-test.

[3] = section posterior to the MCA, forty-eight hours following occlusion, mean ± standard deviation, N = 12

O=C1NC(c2ccccc2)(c2ccccc2)C(=O)N1COP(=O)(O)O [Disodium Salt of Prophenytoin, 3-(hydroxymethyl)-5,5-diphenylhydantoin disodium phosphate ester]
precipitate formation in standard intravenous solutions [1]: do not form precipitates | % Change, POST ([2]; area of infarction vs Vehicle, Probability 0.006): -71.56% | % Change, POS-MED ([2]; area of infarction vs Vehicle, Probability 0.008): -57.10% | % Change, ANT-MED ([2]; area of infarction vs Vehicle, Probability 0.049): -22.82% | % Change, ANT ([2]; area of infarction vs Vehicle, Probability 0.160): -18.58% | TOTAL VOLUME of infarction ([2]; calculated from the areas of the four sections, forty-eight hours following occlusion, mean ± standard deviation, N = 12): 43.21 ±21.85 | area of infarction, ANT ([2]; section anterior to the MCA, forty-eight hours following occlusion, mean ± standard deviation, N = 12): 9.03 ± 2.91 | area of infarction, ANT-MED [2, 3]: 11.23 ± 2.95 | area of infarction, POS-MED [2, 3]: 5.23 ± 5.44 | area of infarction, POST [2, 3]: 2.97 ± 4.39 | % Change, TOTAL VOLUME ([2]; total volume of infarction vs Vehicle, Probability 0.010): -42.07%

From patent publication EP0427925A2, “Use of prophenytoin for preparing pharmaceutical preparations for treating stroke and cerebral ischemia” (WARNER-LAMBERT COMPANY, priority 1989, dated 1991)
